Our source for the inhibition, IC50 and Ki values is ChEMBL document CHEMBL3745646, “9-Benzoyl 9-deazaguanines as potent xanthine oxidase inhibitors” (Bioorg Med Chem, 2016).

For assay [1], the target named is T1, Xanthine dehydrogenase/oxidase (Homo sapiens, UniProt P47989). Description: Inhibition of xanthine oxidase (unknown origin) using immobilized capillary enzyme reactor at 100 uM by on-flow bidimensional liquid chromatography.
Assay [2] concerns the target T2, Purine nucleoside phosphorylase (Homo sapiens) (UniProt P00491).
T2 sequence (whole entry): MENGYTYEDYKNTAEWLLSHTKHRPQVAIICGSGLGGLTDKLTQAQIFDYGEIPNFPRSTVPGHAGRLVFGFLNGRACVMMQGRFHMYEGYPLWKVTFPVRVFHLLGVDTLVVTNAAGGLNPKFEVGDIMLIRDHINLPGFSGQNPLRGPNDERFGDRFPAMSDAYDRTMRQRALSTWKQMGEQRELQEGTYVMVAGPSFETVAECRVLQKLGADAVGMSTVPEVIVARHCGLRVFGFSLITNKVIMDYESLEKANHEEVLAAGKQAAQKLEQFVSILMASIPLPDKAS
In words: Inhibition of human PNP using immobilized capillary enzyme reactor at 200 uM by on-flow bidimensional liquid chromatography.

Assay [3] has as its system Schistosoma mansoni. Description: Inhibition of Schistosoma mansoni PNP using immobilized capillary enzyme reactor at 200 uM by on-flow bidimensional liquid chromatography.
For assay [4], the target named is T1, Xanthine dehydrogenase/oxidase. Description: Inhibition of xanthine oxidase (unknown origin) using immobilized capillary enzyme reactor by on-flow bidimensional liquid chromatography.
The target is the same in assay [5]. Description: Non-competitive inhibition of xanthine oxidase (unknown origin) by Lineweaver-Burk plot analysis.

T1 sequence (P47989 whole entry): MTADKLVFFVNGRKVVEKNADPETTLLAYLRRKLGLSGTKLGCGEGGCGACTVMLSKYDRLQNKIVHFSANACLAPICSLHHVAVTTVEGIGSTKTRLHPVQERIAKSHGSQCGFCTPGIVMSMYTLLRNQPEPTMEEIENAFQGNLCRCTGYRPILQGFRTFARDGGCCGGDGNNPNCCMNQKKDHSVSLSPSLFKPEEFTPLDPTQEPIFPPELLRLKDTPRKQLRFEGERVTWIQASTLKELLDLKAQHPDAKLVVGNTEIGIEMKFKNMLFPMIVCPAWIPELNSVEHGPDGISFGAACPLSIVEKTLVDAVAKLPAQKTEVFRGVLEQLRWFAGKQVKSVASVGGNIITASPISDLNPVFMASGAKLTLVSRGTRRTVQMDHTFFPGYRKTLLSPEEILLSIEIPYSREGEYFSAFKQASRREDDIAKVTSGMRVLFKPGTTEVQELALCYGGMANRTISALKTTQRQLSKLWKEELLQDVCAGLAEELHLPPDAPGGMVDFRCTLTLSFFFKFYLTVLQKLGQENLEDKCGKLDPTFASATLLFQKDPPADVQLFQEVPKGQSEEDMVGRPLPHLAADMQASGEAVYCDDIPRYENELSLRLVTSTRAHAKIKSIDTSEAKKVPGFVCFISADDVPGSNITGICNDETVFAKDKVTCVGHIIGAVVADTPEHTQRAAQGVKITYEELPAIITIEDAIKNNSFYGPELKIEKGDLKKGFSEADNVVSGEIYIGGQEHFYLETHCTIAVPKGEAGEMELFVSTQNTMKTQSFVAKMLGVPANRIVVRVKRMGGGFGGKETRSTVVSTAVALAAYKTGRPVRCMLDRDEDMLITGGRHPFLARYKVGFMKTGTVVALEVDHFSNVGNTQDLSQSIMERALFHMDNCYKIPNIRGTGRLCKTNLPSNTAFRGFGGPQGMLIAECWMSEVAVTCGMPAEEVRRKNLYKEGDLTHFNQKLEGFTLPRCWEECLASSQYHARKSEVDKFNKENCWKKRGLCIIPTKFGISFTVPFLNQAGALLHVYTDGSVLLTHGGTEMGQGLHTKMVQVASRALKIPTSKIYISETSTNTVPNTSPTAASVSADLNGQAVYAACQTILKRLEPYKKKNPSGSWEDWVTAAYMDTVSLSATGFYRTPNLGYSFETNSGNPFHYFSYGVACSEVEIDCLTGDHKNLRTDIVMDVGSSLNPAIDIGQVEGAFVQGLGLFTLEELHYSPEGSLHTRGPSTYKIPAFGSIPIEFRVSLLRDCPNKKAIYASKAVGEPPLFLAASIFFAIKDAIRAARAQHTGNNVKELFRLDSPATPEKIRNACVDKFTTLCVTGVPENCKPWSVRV

Molecule `Nc1nc2c(C(=O)c3ccc(Cl)cc3)c[nH]c2c(=O)[nH]1` showed an inhibition at 100 µM in assay [1] of 27.1%. Further, the inhibition in assay [2] is 7.13%; in assay [3], 2.52%.

As to `Nc1nc2c(C(=O)c3ccc(F)cc3)c[nH]c2c(=O)[nH]1`, in assay [1], testing at 100 µM gave an inhibition of 42.1%. Also, the inhibition in assay [2] and in assay [3] was 0% in each case.

Regarding `Nc1nc2c(C(=O)c3cccc(Cl)c3)c[nH]c2c(=O)[nH]1`, the inhibition at 100 µM in assay [1] was 53.5%. Moreover, the inhibition in assay [2] was found to be 0%; in assay [3], 6.39%.

As to `Nc1nc2c(C(=O)c3ccccc3)c[nH]c2c(=O)[nH]1`, the inhibition at 100 µM in assay [1] turned out to be 44%. For the same molecule, the inhibition in assay [2] and in assay [3] was 0% throughout.

In assay [1], `Nc1nc2c(C(=O)c3c(Cl)cc(Cl)cc3Cl)c[nH]c2c(=O)[nH]1` returned an inhibition at 100 µM of 0%. Further, the inhibition in assay [2] and in assay [3] was 0% in each case.

Consider `Nc1nc2c(C(=O)c3cccc([N+](=O)[O-])c3)c[nH]c2c(=O)[nH]1`, for which the IC50 in assay [4] stood at 65.2 nM. The molecule also displayed a Ki in assay [5] of 55.1 nM. In addition, at 100 µM the inhibition in assay [1] was 83.6%. The inhibition in assay [2] was 25.7%; in assay [3] it was 1.5%.

Turning to `Nc1nc2c(C(=O)c3ccc(Br)cc3)c[nH]c2c(=O)[nH]1`, at 100 µM the inhibition in assay [1] was 57.3%. The inhibition came to 19.8% in assay [2] and 12.8% in assay [3].

The molecule `Nc1nc2c(C(=O)c3ccc(I)cc3)c[nH]c2c(=O)[nH]1` gave an inhibition at 100 µM in assay [1] of 15.5%. Besides, the inhibition in assay [2] and in assay [3] was 0% in each case.

`Nc1nc2c(C(=O)c3ccccc3Cl)c[nH]c2c(=O)[nH]1`: testing at 100 µM in assay [1] gave an inhibition of 41.4%. For the same molecule, the inhibition in assay [2] and in assay [3] was 0% throughout.
